The text below walks through data of PubChem BioAssay AID1259407 (Chemical Carcinogenesis Research Information System (CCRIS), 2018).

Active and inactive are the calls of the source. No rule for the calls is given here.

The data set deals with CCRIS mutagenicity, Ames/micronucleus/aberration tests. The experiment in a line: CCRIS mutagenicity studies.
Where [1] appears, read: Test System: AMES SALMONELLA TYPHIMURIUM, Strain/Indicator: TA98, Metabolic Activation: NONE, Method: STANDARD PLATE.
Setting [2] is: Test System: AMES SALMONELLA TYPHIMURIUM, Strain/Indicator: TA100, Metabolic Activation: NONE, Method: STANDARD PLATE.
Setting [3] is: Test System: AMES SALMONELLA TYPHIMURIUM, Strain/Indicator: TA100, Metabolic Activation: RAT, LIVER, S-9, AROCLOR 1254, Method: STANDARD PLATE.
Setting [4] is: Test System: AMES SALMONELLA TYPHIMURIUM, Strain/Indicator: TA100, Metabolic Activation: NONE, Method: PREINCUBATION
Setting [5] is: Test System: AMES SALMONELLA TYPHIMURIUM, Strain/Indicator: TA1535, Metabolic Activation: NONE, Method: PREINCUBATION
[6] abbreviates: Test System: AMES SALMONELLA TYPHIMURIUM, Strain/Indicator: TA102, Metabolic Activation: NONE, Method: STANDARD PLATE.

In the case of `Cc1c2ccccc2cc2ccccc12`, the mutagenic call was “inactive; negative” (Test System: AMES SALMONELLA TYPHIMURIUM, Strain/Indicator: TA97, Metabolic Activation: NONE, Method: STANDARD PLATE); “active; positive” (Test System: AMES SALMONELLA TYPHIMURIUM, Strain/Indicator: TA97, Metabolic Activation: RAT, LIVER, S-9, PCB, Method: STANDARD PLATE); “inactive; negative” under setting [1]; “active; positive” (Test System: AMES SALMONELLA TYPHIMURIUM, Strain/Indicator: TA98, Metabolic Activation: RAT, LIVER, S-9, AROCLOR 1254, Method: STANDARD PLATE); “active; positive” (Test System: AMES SALMONELLA TYPHIMURIUM, Strain/Indicator: TA98, Metabolic Activation: RAT, LIVER, S-9, PCB, Method: STANDARD PLATE); “inactive; negative” under setting [2]. Also, the mutagenic call under setting [3] was “inactive; negative” and the mutagenic call (Test System: AMES SALMONELLA TYPHIMURIUM, Strain/Indicator: TA100, Metabolic Activation: RAT, LIVER, S-9, PCB, Method: STANDARD PLATE) is “active; positive”.

For `COc1cc2c(c3oc(=O)c4c(c13)CC[C@H]4O)[C@@H]1C=CO[C@@H]1O2`, the mutagenic call is, setting by setting: under setting [2], “inactive; negative”; under setting [3], “active; positive”.

In the case of `C[N+](C)(C)CC1CO1` (stereo unspecified), the mutagenic call (Test System: UDS RAT HEPATOCYTES, Strain/Indicator: THY INCORP, Metabolic Activation: NONE) was “active; positive”.

As to `c1ccc(CC2CO2)cc1` (stereo unspecified), the mutagenic call was “active; positive” under setting [4]; “active; positive” under setting [2]; “active; positive” under setting [5]; “active; positive” (Test System: AMES SALMONELLA TYPHIMURIUM, Strain/Indicator: TA1535, Metabolic Activation: NONE, Method: STANDARD PLATE).

As to `Nc1cc(Cl)c([N+](=O)[O-])cc1O`, the mutagenic call is, setting by setting: (Test System: AMES SALMONELLA TYPHIMURIUM, Strain/Indicator: TA97, Metabolic Activation: HAMSTER, LIVER, S-9, AROCLOR 1254 (10%), Method: PREINCUBATION) “active; positive”; (Test System: AMES SALMONELLA TYPHIMURIUM, Strain/Indicator: TA97, Metabolic Activation: NONE, Method: PREINCUBATION) “active; positive”; (Test System: AMES SALMONELLA TYPHIMURIUM, Strain/Indicator: TA97, Metabolic Activation: RAT, LIVER, S-9, AROCLOR 1254 (10%), Method: PREINCUBATION) “active; positive”; (Test System: AMES SALMONELLA TYPHIMURIUM, Strain/Indicator: TA98, Metabolic Activation: HAMSTER, LIVER, S-9, AROCLOR 1254 (10%), Method: PREINCUBATION) “active; positive”; (Test System: AMES SALMONELLA TYPHIMURIUM, Strain/Indicator: TA98, Metabolic Activation: NONE, Method: PREINCUBATION) “active; positive”; (Test System: AMES SALMONELLA TYPHIMURIUM, Strain/Indicator: TA98, Metabolic Activation: RAT, LIVER, S-9, AROCLOR 1254 (10%), Method: PREINCUBATION) “active; positive”. Also, the mutagenic call (Test System: AMES SALMONELLA TYPHIMURIUM, Strain/Indicator: TA100, Metabolic Activation: HAMSTER, LIVER, S-9, AROCLOR 1254 (10%), Method: PREINCUBATION) is “active; positive”; the mutagenic call under setting [4] is “inactive; negative”; the mutagenic call (Test System: AMES SALMONELLA TYPHIMURIUM, Strain/Indicator: TA100, Metabolic Activation: RAT, LIVER, S-9, AROCLOR 1254 (10%), Method: PREINCUBATION) is “inactive; negative”; the mutagenic call (Test System: AMES SALMONELLA TYPHIMURIUM, Strain/Indicator: TA1535, Metabolic Activation: HAMSTER, LIVER, S-9, AROCLOR 1254 (10%), Method: PREINCUBATION) is “inactive; negative”; the mutagenic call under setting [5] was “inactive; negative”; the mutagenic call (Test System: AMES SALMONELLA TYPHIMURIUM, Strain/Indicator: TA1535, Metabolic Activation: RAT, LIVER, S-9, AROCLOR 1254 (10%), Method: PREINCUBATION) is “inactive; negative”.

Regarding `CC(C)(C)c1ccc(/C=C/c2ccc(N)cc2)cc1`, the mutagenic call runs as follows: under setting [1], “inactive; negative”; (Test System: AMES SALMONELLA TYPHIMURIUM, Strain/Indicator: TA98, Metabolic Activation: RAT, LIVER, S-9, AROCLOR, Method: STANDARD PLATE) “inactive; negative”; under setting [2], “inactive; negative”; (Test System: AMES SALMONELLA TYPHIMURIUM, Strain/Indicator: TA100, Metabolic Activation: RAT, LIVER, S-9, AROCLOR, Method: STANDARD PLATE) “inactive; negative”.

As to `CCn1cc(C(=O)O)c(=O)c2cc(F)c(N3CCNCC3)nc21`, the mutagenic call (Test System: AMES SALMONELLA TYPHIMURIUM, Strain/Indicator: HISG428, Metabolic Activation: NONE, Method: STANDARD PLATE) is “inactive; negative”; the mutagenic call (Test System: AMES SALMONELLA TYPHIMURIUM, Strain/Indicator: TA92, Metabolic Activation: NONE, Method: STANDARD PLATE) is “active; positive”; the mutagenic call under setting [6] is “active; positive”; the mutagenic call (Test System: AMES SALMONELLA TYPHIMURIUM, Strain/Indicator: TA103, Metabolic Activation: NONE, Method: STANDARD PLATE) is “active; positive”; the mutagenic call (Test System: AMES SALMONELLA TYPHIMURIUM, Strain/Indicator: TA104, Metabolic Activation: NONE, Method: STANDARD PLATE) is “inactive; negative”; the mutagenic call (Test System: AMES SALMONELLA TYPHIMURIUM, Strain/Indicator: TA2638, Metabolic Activation: NONE, Method: STANDARD PLATE) is “active; positive”. For the same molecule, the mutagenic call is “inactive; negative” (Test System: AMES SALMONELLA TYPHIMURIUM, Strain/Indicator: TA2661, Metabolic Activation: NONE, Method: STANDARD PLATE); “active; positive” (Test System: AMES SALMONELLA TYPHIMURIUM, Strain/Indicator: TA2662, Metabolic Activation: NONE, Method: STANDARD PLATE); “inactive; negative” (Test System: AMES SALMONELLA TYPHIMURIUM, Strain/Indicator: TA2678, Metabolic Activation: NONE, Method: STANDARD PLATE).

As for `CC(CN(CC(=O)O)CC(=O)O)N(CC(=O)O)CC(=O)O` (stereo unspecified), the mutagenic call runs as follows: (Test System: CHINESE HAMSTER V-79, Strain/Indicator: V-79/OUABAIN, Metabolic Activation: NONE, Method: STANDARD PLATE) “active; positive”; (Test System: UDS RODENT CELLS, Strain/Indicator: THY INCORP (NON-S-PHASE), Metabolic Activation: NONE, Method: AUTORADIOGRAPHY) “active; positive”.

On to `O=[N+]([O-])c1ccc(Cl)c(F)c1`, for which the mutagenic call (End Point: IN VITRO CHROMOSOMAL ABERRATIONS, Test System: HUMAN PERIPHERAL LYMPHOCYTES, Metabolic Activation: NONE) is “inactive; negative”.

For `CCC[CH2][Sn]([Cl])([CH2]CCC)[CH2]CCC`, the mutagenic call (Test System: AMES SALMONELLA TYPHIMURIUM, Strain/Indicator: TA98, Metabolic Activation: NONE, Method: SUSPENSION/PLATE) was “inactive; negative” and the mutagenic call (Test System: AMES SALMONELLA TYPHIMURIUM, Strain/Indicator: TA100, Metabolic Activation: NONE, Method: SUSPENSION/PLATE) was “active; positive”.

On to `C/C=C/C=C/CCCCCCCO`, for which the mutagenic call reads like this: under setting [1], “inactive; negative”; (Test System: AMES SALMONELLA TYPHIMURIUM, Strain/Indicator: TA98, Metabolic Activation: RAT, LIVER, S-9, Method: STANDARD PLATE) “inactive; negative”; under setting [2], “inactive; negative”; (Test System: AMES SALMONELLA TYPHIMURIUM, Strain/Indicator: TA100, Metabolic Activation: RAT, LIVER, S-9, Method: STANDARD PLATE) “inactive; negative”; under setting [6], “inactive; negative”; (Test System: AMES SALMONELLA TYPHIMURIUM, Strain/Indicator: TA102, Metabolic Activation: RAT, LIVER, S-9, Method: STANDARD PLATE) “inactive; negative”.

As to `COc1cccc2c1OC1(C)OOC21C` (stereo unspecified), under setting [4], the mutagenic call was “active; positive”.

Consider `O/N=C/c1ccncc1`, for which the mutagenic call is “inactive; negative” (Test System: AMES SALMONELLA TYPHIMURIUM, Strain/Indicator: TA102, Metabolic Activation: RAT, LIVER, S-9, PHENOBARBITAL AND 5,6-BENZOFLAVONE, Method: STANDARD PLATE); “inactive; negative” (Test System: AMES SALMONELLA TYPHIMURIUM, Strain/Indicator: TA2638, Metabolic Activation: RAT, LIVER, S-9, PHENOBARBITAL AND 5,6-BENZOFLAVONE, Method: STANDARD PLATE); “inactive; negative” (Test System: E. COLI, Strain/Indicator: WP2 (PKM101), Metabolic Activation: RAT, LIVER, S-9, PHENOBARBITAL AND 5,6-BENZOFLAVONE, Method: STANDARD PLATE); “active; positive” (Test System: E. COLI, Strain/Indicator: WP2 UVRA (PKM101), Metabolic Activation: RAT, LIVER, S-9, PHENOBARBITAL AND 5,6-BENZOFLAVONE, Method: STANDARD PLATE).
